Data on 2 substances can be found in paper PMC4764579, “Structural insights into the mechanism of activation of the TRPV1 channel by a membrane-bound tarantula toxin” (eLife, 2016).

In series [1] the target is rat TRPV1, full-length channel expressed in HEK293 cells (rat) (UniProt O35433).
rat TRPV1, full-length channel expressed in HEK293 cells (rat), sequence (O35433 whole entry): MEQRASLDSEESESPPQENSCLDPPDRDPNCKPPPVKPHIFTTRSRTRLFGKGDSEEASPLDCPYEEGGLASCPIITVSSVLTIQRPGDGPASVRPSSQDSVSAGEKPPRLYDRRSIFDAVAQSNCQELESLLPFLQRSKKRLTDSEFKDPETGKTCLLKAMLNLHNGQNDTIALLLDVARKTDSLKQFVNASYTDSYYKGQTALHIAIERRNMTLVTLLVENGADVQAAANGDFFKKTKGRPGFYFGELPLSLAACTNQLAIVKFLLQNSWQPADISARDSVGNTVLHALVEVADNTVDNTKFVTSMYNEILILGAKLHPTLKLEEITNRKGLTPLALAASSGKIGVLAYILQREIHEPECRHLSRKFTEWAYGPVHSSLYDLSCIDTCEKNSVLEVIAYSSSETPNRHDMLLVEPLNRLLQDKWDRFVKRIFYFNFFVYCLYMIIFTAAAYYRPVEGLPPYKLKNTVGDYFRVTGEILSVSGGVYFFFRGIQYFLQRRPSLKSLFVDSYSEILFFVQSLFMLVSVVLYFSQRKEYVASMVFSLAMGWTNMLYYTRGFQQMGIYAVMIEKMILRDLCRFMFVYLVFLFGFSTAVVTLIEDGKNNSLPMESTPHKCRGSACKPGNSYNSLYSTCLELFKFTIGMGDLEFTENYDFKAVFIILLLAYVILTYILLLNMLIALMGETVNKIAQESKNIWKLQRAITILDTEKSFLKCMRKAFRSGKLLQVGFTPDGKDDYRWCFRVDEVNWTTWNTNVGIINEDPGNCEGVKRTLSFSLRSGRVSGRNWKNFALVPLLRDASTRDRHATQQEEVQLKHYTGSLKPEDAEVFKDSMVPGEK

double-knot toxin (DkTx), full-length toxin produced recombinantly (natural protein), sequence (P0CH43 1-75): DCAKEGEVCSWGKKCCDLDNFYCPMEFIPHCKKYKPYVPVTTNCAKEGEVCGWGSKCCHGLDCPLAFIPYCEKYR

double-knot toxin: the Trp emission maximum in aqueous solution came to 353 nm.
In series [1], “double-knot toxin (DkTx), full-length toxin produced recombinantly (natural protein)” showed a fractional dissociation 1 min after toxin removal (current 1 min after removal divided by steady-state current with toxin), whole-cell patch clamp at +120 mV, TRPV1 in HEK cells of 0.8.
